According to the supplement of paper PMC12325586:

Test system: MIA PaCa-2
[1] = OFD1 knockdown: no (no doxycycline)
[2] = OFD1 knockdown: yes (Tet-on shOFD1, 100 ng/mL doxycycline)

Row | IC50 cell viability [1] | IC50 cell viability [2] | SMILES
1 | 48.3 µM | 49.9 µM | C[C@]1(O)C[C@@H](c2nc(-c3ccc4ccc(-c5ccccc5)nc4c3)c3c(N)nccn32)C1 [S1091]
2 | 15.8 µM | 14.1 µM | Cc1nc(=O)c2cc(CN(C)c3ccc(C(=O)N[C@@H](CCC(=O)O)C(=O)O)s3)ccc2[nH]1 [S1192]
3 | 31.8 µM | 18.9 µM | CNCc1ccc(-c2[nH]c3cc(F)cc4c3c2CCNC4=O)cc1 [S1098]
4 | 12.2 µM | 11.5 µM | CC1=C(/C=C/C(C)=C/C=C/C(C)=C\C(=O)O)C(C)(C)CCC1 [S1379]
5 | 38.7 µM | 43.9 µM | CNC(=O)c1ccccc1Sc1ccc2c(/C=C/c3ccccn3)n[nH]c2c1 [S1005]
6 | 9.08 µM | 8.71 µM | CC#C[C@]1(O)CC[C@H]2[C@@H]3CCC4=CC(=O)CCC4=C3[C@@H](c3ccc(N(C)C)cc3)C[C@@]21C [S2606]
7 | 30.1 µM | 29.6 µM | COc1cc2ncnc(Nc3ccc(F)c(Cl)c3)c2cc1NC(=O)/C=C/CN1CCCCC1 [S2727]
8 | 2.38 µM | 2.28 µM | C[C@]12C=CC(=O)N[C@@H]1CC[C@@H]1[C@@H]2CC[C@]2(C)[C@@H](C(=O)Nc3cc(C(F)(F)F)ccc3C(F)(F)F)CC[C@@H]12 [S1202]
9 | 27 µM | 23.9 µM | Nc1nc(CC(=O)Nc2ccc(CCNC[C@H](O)c3ccccc3)cc2)cs1 [S4009]
10 | 8.15 µM | 7.5 µM | CNC(=O)c1cc(Oc2ccc(NC(=O)Nc3ccc(Cl)c(C(F)(F)F)c3)cc2)ccn1 [S1040]
11 | 11.9 µM | 11.5 µM | COc1c(C)c2c(c(O)c1C/C=C(\C)CCC(=O)OCCN1CCOCC1)C(=O)OC2 [S1501]
12 | 38.1 µM | 36.1 µM | CC(C)OC(=O)C(C(=O)OC(C)C)=C1SC=CS1 [S1137]
13 | 1.73 µM | 1.39 µM | C[C@@H](Oc1cc(-c2cnn(C3CCNCC3)c2)cnc1N)c1c(Cl)ccc(F)c1Cl [S1068]
14 | 2.85 µM | 2.98 µM | CCN(CC)CCNC(=O)c1c(C)[nH]c(/C=C2\C(=O)Nc3ccc(F)cc32)c1C [S1042]
15 | 24.5 µM | 20 µM | CCc1c2c(nc3ccc(OC(=O)N4CCC(N5CCCCC5)CC4)cc13)-c1cc3c(c(=O)n1C2)COC(=O)[C@]3(O)CC [S1198]
16 | 59 µM | 54.2 µM | Nc1nc(F)nc2c1ncn2[C@@H]1O[C@H](CO)[C@@H](O)[C@@H]1O [S1491]
17 | 7.47 µM | 5.94 µM | Cc1cc(C)c2c(c1)[C@@H](N(Cc1cc(C(F)(F)F)cc(C(F)(F)F)c1)c1nnn(C)n1)CCCN2C[C@H]1CC[C@H](C(=O)O)CC1 [S2925]
18 | 3.68 µM | 3.47 µM | Cc1ccccc1C(=O)Nc1ccc(C(=O)N2CCCC(O)c3cc(Cl)ccc32)c(C)c1 (configuration not stated) [S2593]
19 | 13.8 µM | 14.4 µM | CC(C)(C)c1cc(NC(=O)Nc2ccc(-c3cn4c(n3)sc3cc(OCCN5CCOCC5)ccc34)cc2)no1 [S1526]
20 | 9.12 µM | 8.03 µM | CS(=O)(=O)CCNCc1ccc(-c2ccc3ncnc(Nc4ccc(OCc5cccc(F)c5)c(Cl)c4)c3c2)o1 [S2111]
21 | 3.55 µM | 3.77 µM | O=C1c2c(O)ccc(O)c2C(=O)c2c(NCCNCCO)ccc(NCCNCCO)c21 [S2485]
